In patent US20070274916A1, “Method for Identifying Compounds that Affect Expression of Tryptophan Hydroxylase Isoform 2” (priority 2003, published 2007):
Entries after “also recorded” stand apart in the source; their conditions may differ.

Assays:
Type in all cases: in vivo, mouse
[1] = Plasma corticosterone in male BKTO mice (radioimmunoassay); conditions: 4×5 mg pellets, equivalent of 40mg/kg/day, 14 days, FIG. 10, p=0.004
Protocol: (§1) Male BKTO mice (Bantin and Kingman, Hull UK) weighing 25 g at the start of the experiment were briefly anaesthetized using isofluorane. Animals were implanted with 4×5 mg cortic/sterone pellets (Innovative Research of America, catalogue number G-111, 21 day release formulation) or 4× placebo pellets (catalogue number NC-111) this gave an equivalent of 40mg/kg/day of corticosterone. Pellets were implanted using a trochar supplied by the manufacturer which had been modified to allow 4 pellets to be held in one trochar, thus requiring only one incision per animal. The most ideal place to implant the pellet was where there is maximal space between the skin and the muscle such as the lateral side of the neck between the ear and the shoulder-no stitching or wound clipping was required when using this technique. Animals were returned to the home cage and allowed to recover. Fourteen days later, the animals were humanely killed and trunk blood collected into EDTA coated tubes, centrifuged for 10 minutes at 3000 rpm, and plasma removed and frozen on dry ice until ready for analysis. Brains were removed, frozen in isopentane, and stored at −80° C. until ready for analysis. […] Plasma corticosterone was analyzed using a COAT-A-COUNT rat corticosterone radioimmunoassay kit (DPC Products-Order no TKRC1). […]

TPH2 mRNA [2] = assay: TPH2 mRNA in raphe slice preparation of male BKTO mice under chronic corticosterone, real-time RT-PCR; conditions: 14 days, equivalent of 40mg/kg/day
Protocol: as §1

TPH1 mRNA = TPH1 mRNA levels in murine raphe slice preparation by real-time RT-PCR; conditions: FIG. 6
Description: (§2) Female mice (13 to 16 wks of age) were ovariectomized (C57BL/6s from Charles River; ER Knockout animals from Taconic). Animals were fed a soy-free rodent chow and allowed a minimum of one week to recuperate from surgery and shipping. […] Approximately six hours following the fourth dose, mice were deeply anesthetized with ketamine/xylazine and brains were removed from the skull, placed ventral side up in a mouse brain block on ice, and ice-cold razor blades were inserted into the block at 1 mm intervals. The caudal extent of the hypothalamus was used as an anatomical marker for the placement of the first razor blade, and 4 blades were placed in sequential slots, caudally. The four sections were examined and the two that encompassed the greatest extent of the dorsal raphe were placed in a tube containing RNALATER (Ambion, Austin, Tex.) and placed at 4° C. overnight. Brain slices were removed from RNALATER after 24 hours and stored at −80° C. in fresh tubes.
(§3) Isolation of total RNA from mouse raphe slices for real-time PCR analysis using the TAQMAN ABI PRISMS 7700 Detection System, Applied Biosystems, Foster City, Calif. was as follows. Samples were stored in RNALATER at 4° C. overnight followed by removal of RNALATER and storage at −80° C. until isolation of the total RNA (2 slices weigh 25 to 50 mg). Slices were removed from −80° C. and placed in 1.0 mL TRIZOL Reagent in FASTPREP processing tubes. Slices were homogenized with one pass at setting 6 for 30 seconds in FASTPREP 120 homogenizer using LYSING MATRIX D tubes with bead matrix followed by 20 seconds at setting 6 after all samples had been processed. Samples were set at room temperature for 5 minutes to allow for complete dissociation of nucleoprotein complexes followed by centrifugation of the samples at 12,000×g for 5 minutes at 4° C. Homogenates were transferred to 1.5 mL; microcentrifuge tubes and 100 μL BCP (Bromo-3-chloropropane) was added. Samples were vortexed for 15 seconds and set at room temperature for 2 to 3 minutes. Samples were centrifuged at 12,000×g for 15 minutes at 4° C. The aqueous layer was removed and placed in a new RNAse-free sterile 1.5 mL microcentrifuge tube. Five μL of 5 mg/μL glycogen was added to each sample and the samples were vortexed. Five hundred μL of isopropanol was added to each sample. The samples were vortexed for 15 seconds, set at room temperature 10 minutes, followed by centrifugation at 12,000×g for 15 minutes at 4° C. Supernatants were decanted and pellets washed with 500 μL ice cold 75% ethanol. Samples were centrifuged at 12,000×g for 15 minutes at 4° C., ethanol decanted, and pellets air dried for 10 minutes. Pellets were resuspended in 30 μL prewarmed RNASECURE (60° C.), and heated at 60° C. for 10 min. Samples were stored at −80° C. until DNAse treatment and cDNA synthesis.
DNase treatment and cDNA preparation with wt mouse raphe slice total RNA for TAQMAN analysis. DNase treatment using DNA-free kit (Ambion). Five μg of the total RNA sample was aliquotted to each well of a 96 well plate. An 1× DNase I solution was added to each sample (DNase I buffer, DNase I, H2O). Reactions were mixed and incubated at 37° C. for 30 minutes. Reactions were inactivated by addition of DNase inactivation reagent beads, mixed well at room temperature for 3 minutes and centrifuged at 2,500 RPM for 1 minutes at 4° C. (25 μL reactions were run and inactivated with 1/10 volume of inactivation reagent).
Reverse Transcription. A 10 μL of the DNase I-treated total RNA was added to 40 μL of 1× reverse transcription reaction mix (DEPC treated H2O, RT buffer, MgCl2, dNTP mix, random hexamers, RNase inhibitor, and MULTISCRIBE RT) and incubated at 25° C. for 10 minutes, 48° C. for 30 minutes, and 95° C. for 5 minutes. Reverse transcription was halted by the addition of EDTA. Samples were transferred to a storage plate and stored at −20° C. […]

TPH2 mRNA [3] = assay: TPH2 mRNA levels in murine raphe slice preparation of ovariectomized female mice by real-time RT-PCR; conditions: prednisolone 10 mpk once daily; FIGS. 7 and 8
Description: as §2, with “RNALATER” left out
Two TPH2 primer and probe sets were generated for use in detecting TPH2 by real-time RT-PCR. Murine TPH2 forward primers were mTPH2-514F and mTPH2-1270F, their corresponding sequences are 5′-[…]-3′ (SEQ ID NO:7; corresponding to nucleotides 514 to 535 of the nucleotide sequence encoding TPH2) and 5′-[…]-3′ (SEQ ID NO:8; corresponding to nucleotides 1270 to 1290 of the nucleotide sequence encoding TPH2), respectively. The murine TPH2 reverse primers were mTPH2-585R and mTPH2-1344R, their corresponding sequences are 5′-[…]-3′ (SEQ ID NO:9; corresponding to nucleotides 567 to 585 of the nucleotide sequence encoding TPH2) and 5′-[…]-3′ (SEQ ID NO:10; corresponding to nucleotides 1324 to 1344 of the nucleotide sequence encoding TPH2), respectively. The murine TPH2 probes were mTPH2-565T and mTPH2-1292T, their corresponding sequences are: 5′-[…]-3′ (SEQ ID NO:11; corresponding to nucleotides 539 to 565 of the nucleotide sequence encoding TPH2) and 5′-[…]-3′ (SEQ ID NO:12; corresponding to nucleotides 1292 to 1317 of the nucleotide sequence encoding TPH2), respectively. The probes were labeled at the 5′ end with FAM and the 3′ end with TAMRA.
as §3, with “RNALATER” left out, “ethanol.” for “ethanol. Samples were centrifuged at 12,000×g for 15 minutes at 4° C., ethanol decanted, and pellets air dried for 10 minutes. Pellets were resuspended in 30 μL prewarmed RNASECURE (60° C.), and heated at 60° C. for 10 min. Samples were stored at −80° C. until DNAse treatment and cDNA synthesis.”

plasma levels after treatment [1]	Compound	level of TPH2 mRNA in raphe slice preparation (TPH2 mRNA [2]; FIG. 11, p=0.01)	level of TPH2 mRNA in raphe slice preparation (TPH2 mRNA [2]; FIG. 11, p=0.01, listed as corticosterone)	effect on TPH1 mRNA levels (TPH1 mRNA; 10 mpk s.c., ovariectomized mice)	change of TPH1 mRNA levels in response to treatment (TPH1 mRNA; murine raphe slice preparations, dose not stated)	effect on TPH2 mRNA expression compared to vehicle (TPH2 mRNA [3])
significant increase	C[C@]12C[C@H](O)[C@H]3[C@@H](CCC4=CC(=O)CC[C@@]43C)[C@@H]1CC[C@@H]2C(=O)CO [corticosterone]	significantly reduced	significant decrease	–	–	–
–	C[C@]12C=CC(=O)C=C1CC[C@@H]1[C@@H]2[C@@H](O)C[C@@]2(C)[C@H]1CC[C@]2(O)C(=O)CO [prednisolone]	–	–	neither 3 mpk of dexamethasone nor 10 mpk prednisolone had any effect; also recorded: no effect	no detectable change	decrease; also recorded: significant reduction
